Key:
[1] = molecular target: T1, NMDA receptor (rat cortical membranes) (Rattus norvegicus, UniProt P35439); assay: [3H] MK-801 binding assay (potentiation of [3H]MK-801 binding)
T1 construct: well washed rat cortical membranes (200 μg); from tissue; host or cells: rat cerebral cortex membranes
Description: Assays were conducted as described in Moskal et al. (Moskal, J. R., Kuo, A. G., Weiss, C., Wood, P. L., O'Connor Hanson, A., Kelso, S., Harris, R. B., Disterhoft, J. F., 2005. GLYX-13: a monoclonal antibody-derived peptide that acts as an N-methyl-D-aspartate receptor modulator. Neuropharmacology. 49, 1077-87) The potentiation of [^3H]MK-801 binding (5 nM; 22.5 Ci/mmol) to well washed rat cortical membranes (200 μg) was measured under non-equilibrium conditions (15 min @ 25° C.) in the presence of increasing concentrations of test compounds and 50 μM glutamate. Zero levels were determined in the absence of any glycine ligand and in the presence of 30 μM 5,7 DCKA. Maximal stimulation was measured in the presence of 1 mM glycine, and 50 μM glutamate was present in all samples. The facilitation of [^3H]MK-801 binding by tests compounds was calculated by using a 3 parameter log agonist vs. response equation (Graph pad Prism, USA) and potency (EC50, expressed in pM) and maximal activity (% maximal stimulation) were calculated for the test compound.

LTP = assay: Unified Activity Data: LTP; conditions: LTP Concentration 1 uM
[2] = Unified Activity Data: Porsolt; format: in vivo; conditions: 3 mg/kg, IV, 1 hour post dose

| EC50 [1] | SMILES | Unified Activity Data: LTP Augmentation (Percent) (LTP) | Unified Activity Data: Porsolt Floating Time Inhibition (Percent) [2] |
| --- | --- | --- | --- |
| 0.0553 nM | C[C@@H](O)[C@H](NC(=O)OC(C)(C)C)C(=O)N1CCCC12CNC2=O (stereo in doubt) [Compound 4S-FNL-2, tert-butyl (3-hydroxy-1-oxo-1-(1-oxo-2,5-diazaspiro [3.4]octan-5-yl)butan-2-yl)carbamate] |  |  |
|  | C[C@@H](O)[C@H](N)C(=O)N1CCCC12CNC2=O (stereo partly drawn) [Compound 4S-FNL-1, 5-((2S,3R)-2-amino-3-hydroxybutanoyl)-2,5-diazaspiro [3.4] octan-1-one] | 80% | 70% |

Source: patent US10273239B2, “Spiro-lactam NMDA receptor modulators and uses thereof” (Aptinyx Inc., priority 2013, dated 2019)
